Assay results published in article PMC7601700, “Interaction of Cytochrome C Oxidase with Steroid Hormones” (Cells, 2020).
“Also recorded” adds a separate entry of the source. Like-named read-outs stand apart in the source and are kept apart here.

Experiments:
[1] = target: T1, cytochrome c oxidase (CcO) purified from bovine heart (Bos taurus, UniProt P00396+P68530); test: Peroxidase activity of CcO (o-dianisidine peroxidation by H2O2); type: biochemical; details: for Inhibition of CcO Peroxidase Activity: 0.2 mM o-dianisidine, 4 mM H2O2, 0.6 µM CcO
T1 construct: Cytochrome oxidase was isolated from bovine heart mitochondria; from tissue; host or cells: bovine heart mitochondria
Procedure: Peroxidase activity of CcO was assayed as described by Vygodina and Konstantinov by following spectrophotometrically peroxidation of 0.2 mM o-dianisidine at 432 nm minus 580 nm in a dual-wavelength SLM Aminco DW-2000 spectrophotometer (USA). The reaction mixture contained 0.6 µM CcO in the aerobic basic medium supplemented with different concentrations of DM. No o-dianisidine oxidase activity was observed and the peroxidase reaction was initiated by addition of 4 mM H2O2.

[2] = target: T2, cytochrome c oxidase (CcO) purified from bovine heart, heme a3 (Bos taurus, UniProt P00396+P68530); test: Absorption spectra of CcO (hormone-induced difference spectra); type: binding; details: for Spectral Response Induced in Oxidized CcO: air-oxidized CcO; for Magnitude ε of the spectral shift induced in oxidized CcO: estradiol: 1 mM hormone, pH 8.0, 437 minus 415 nm
T2 construct: Cytochrome oxidase was isolated from bovine heart mitochondria; from tissue; host or cells: bovine heart mitochondria
Procedure: Absorption spectra of CcO were recorded with a Cary 300 Bio spectrophotometer (Varian, Palo Alto, CA, USA) in semi-micro cuvettes with blackened walls and 10 mm light pathway (Hellma, Müllheim, Germany), in the basic medium at pH 8.0 supplemented with indicated different additions. The kinetics of spectral changes was monitored in a dual-wavelength mode in a SLM Aminco DW-2000 spectrophotometer.

[3] = target: T1, cytochrome c oxidase (CcO) purified from bovine heart; test: Cytochrome oxidase activity assay (oxygen uptake, Clark-type electrode; ascorbate + TMPD + cytochrome c); type: biochemical; details: for Inhibition of CcO Oxidase Activity, DM Influence: effect of dodecyl-maltoside on the inhibition; for slope tangent of Ki(app) vs [DM], ratio Ki:Kc: ratio of the affinities of hormone and DM; for Kd: X-axis intercept
Procedure: Cytochrome oxidase was isolated from bovine heart mitochondria using the modified method of Fowler et al. as described previously by Vygodina et al..
Cytochrome oxidase activity assay. Oxygen uptake rates were measured with a covered Clark-type electrode by an Oxytherm instrument (Hansatech, UK) in a thermostatted cell at 25 °C with permanent stirring. The assays were performed in a basic medium containing 50 mM Hepes, 50 mM Tris, pH 7.5 and 0.1 mM EDTA. The medium was also supplemented with indicated concentrations of DM which are given throughout the text in mM (0.05% ≈ 1.0 mM DM). 5 mM ascorbate, 0.1 mM TMPD and 10 µM cytochrome c were used as the oxidation substrate. Other details are indicated in the legends to figures.
In order to determine Ki(app), the titration curves in Figure 2B were approximated by Equation (2) that connects normalized activity, v, with testosterone concentration, [I].

human endothelial cells = system: human endothelial cells; design: method as in PMID 17267145; details: read-out: IC50% for inhibition of cell growth; cited from earlier work
[4] = target: T3, cytochrome c oxidase (CcO) purified from bovine heart, electron transfer from heme a to heme a3 (Bos taurus, UniProt P00396+P68530); test: Stopped-flow kinetics of CcO (heme a3) reduction by dithionite in the presence of RuAm; type: biochemical; details: for rate constant of heme a3 reduction, rapid phase: control 105.3; for rate constant of heme a3 reduction, slow phase: control 6.15
T3 construct: Cytochrome oxidase was isolated from bovine heart mitochondria; from tissue; host or cells: bovine heart mitochondria
Procedure: The kinetics of CcO reduction by dithionite in the presence of ruthenium hexammine (RuAm) was studied in an Applied Photophysics SX-20 stopped-flow spectrophotometer (UK) operated in a diode array mode, using a 20 µL cell with 1 cm optical pathway. The spectra in the 280–720 nm range were collected with a minimal interval of 1 ms. The assay medium contained 100 mM Hepes, 100 mM Tris, 50 mM KCl, 100 µM EGTA, catalase (2 µL/5 mL of the solution, indicated activity 23,000 units/mg protein), 0.05% DM, pH 8.0. Aerobic buffer with 6 µM CcO and 0.4 mM or 1 mM estradiol was rapidly mixed with the equal volume of the same buffer containing 40 mM sodium dithionite and 10 mM RuAm.
Procession of the stopped-flow data was performed with ProKineticist software provided with the Applied Photophysics SX-20 instrument, as well as by using Origin 7 and Origin 9 Microcal software.
We investigated effect of estradiol on the kinetics of electron transfer from heme a to heme a3. To this end, the kinetics of the hemes’ reduction by dithionite in the presence of RuAm was studied. In the experiment shown in Figure 4, 3 µM CcO was mixed rapidly with 20 mM dithionite and 5 mM RuAm and the reaction time course was followed by taking the spectra each ms in the 280–720 nm range in a rapid mixing diode array spectrophotometer.

CcO from R. sphaeroides = system: CcO from R. sphaeroides; design: method as in PMID 24073649; details: cited from earlier work
R. sphaeroides CcO = R. sphaeroides CcO (Cereibacter sphaeroides, UniProt P33517+Q03736); test: Preliminary experiments on inhibition of R. sphaeroides CcO; type: biochemical, Rhodobacter sphaeroides
[5] = target: T1, cytochrome c oxidase (CcO) purified from bovine heart; design: method as in the paper is submitted for publication; details: from study on inhibition of CcO by Triton X-100; ref the paper is submitted for publication; read-out: affinity between DM and CcO, Kc; cited from earlier work
[6] = true Ki extrapolated to zero dodecyl-maltoside (DM) from plot of Ki(app) vs [DM], 25 °C, pH 7.5, read-out: Inhibition of CcO Oxidase Activity, Ki (DM→0)

Chain of R. sphaeroides CcO (P33517 whole entry): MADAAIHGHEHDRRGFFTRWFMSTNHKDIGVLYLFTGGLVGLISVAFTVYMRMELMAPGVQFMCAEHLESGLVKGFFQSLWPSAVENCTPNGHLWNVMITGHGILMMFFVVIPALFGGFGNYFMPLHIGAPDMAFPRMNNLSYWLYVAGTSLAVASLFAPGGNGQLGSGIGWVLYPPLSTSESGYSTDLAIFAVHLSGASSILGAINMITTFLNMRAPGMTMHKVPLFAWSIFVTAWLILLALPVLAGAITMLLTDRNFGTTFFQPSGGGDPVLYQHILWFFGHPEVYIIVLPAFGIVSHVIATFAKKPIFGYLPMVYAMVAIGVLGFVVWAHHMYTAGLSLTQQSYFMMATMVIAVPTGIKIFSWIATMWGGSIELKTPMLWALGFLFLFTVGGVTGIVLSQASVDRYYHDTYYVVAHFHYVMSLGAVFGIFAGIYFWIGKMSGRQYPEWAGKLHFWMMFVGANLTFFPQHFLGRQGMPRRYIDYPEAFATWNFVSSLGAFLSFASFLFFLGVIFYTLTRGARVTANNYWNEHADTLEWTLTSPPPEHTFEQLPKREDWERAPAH
Chain of R. sphaeroides CcO (Q03736 26-290 limits assumed): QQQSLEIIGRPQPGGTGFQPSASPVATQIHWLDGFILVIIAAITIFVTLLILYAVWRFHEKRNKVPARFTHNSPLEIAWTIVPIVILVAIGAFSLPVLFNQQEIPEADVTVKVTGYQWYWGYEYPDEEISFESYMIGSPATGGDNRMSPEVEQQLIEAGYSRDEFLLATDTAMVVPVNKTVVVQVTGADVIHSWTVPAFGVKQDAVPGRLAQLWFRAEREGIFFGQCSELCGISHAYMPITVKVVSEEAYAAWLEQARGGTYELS

## C=C1CC[C@H](O)C/C1=C/C=C1\CCC[C@]2(C)[C@@H]([C@H](C)CCCC(C)C)CC[C@@H]12 [Cholecalciferol (vitamine D3), Cholecalciferol]
[1]
  Inhibition of CcO Peroxidase Activity: yes
[1]; read-out: Ki for inhibition of CcO peroxidase activity
  Ki: ~200 µM
[2]
  Spectral Response Induced in Oxidized CcO: red shift of a3^3+
[2]; 13 mM DM
  Magnitude ε of the spectral shift induced in oxidized CcO: 25 mM^−1⋅cm^−1
[3]
  Inhibition of CcO Oxidase Activity, DM Influence: competes 1:1
[3]; [6]
  Ki: 9 µM

## C[C@]12CC[C@H]3[C@@H](CCC4=CC(O)CC[C@@H]43)[C@@H]1CCC2O (stereo partly shown) [norandrostenediol]
Human endothelial cells
  IC50: 6000 µM

## CC(C)CCC[C@@H](C)[C@H]1CC[C@H]2[C@@H]3CC=C4C[C@@H](O)CC[C@]4(C)[C@H]3CC[C@]12C [cholesterol]
[3]; unpublished data of the authors
  inhibition of the oxidase activity of the bovine heart enzyme: does not inhibit

## CC(=O)[C@H]1CC[C@H]2[C@@H]3CCC4=CC(=O)CC[C@]4(C)[C@H]3CC[C@]12C [Progesterone]
[1]
  Inhibition of CcO Peroxidase Activity: no
[3]
  Inhibition of CcO Oxidase Activity, DM Influence: competes 1:1
[3]; [6]
  Ki: 120 µM

## C[C@]12CC[C@@H]3c4ccc(OC(=O)c5ccccc5)cc4CC[C@H]3[C@@H]1CC[C@@H]2O [estradiol-3-benzoate]
[1]
  Inhibition of CcO Peroxidase Activity: no
[1]; listed as estradiol
  Inhibition of CcO Peroxidase Activity: do not inhibit
[4]; 0.2 mM estradiol, 3 µM CcO, 20 mM dithionite, 5 mM RuAm
  rate constant of heme a3 reduction, rapid phase: 67.75 s⁻¹
[4]; 0.2 mM estradiol
  rate constant of heme a3 reduction, slow phase: 5.3 s⁻¹
[4]; 0.5 mM estradiol
  decrease of the rate constants of both phases of heme a3 reduction: ca. 60%
  rate constant of heme a3 reduction, slow phase: 2.5 s⁻¹
  rate constant of heme a3 reduction, rapid phase: 39.6 s⁻¹
CcO from R. sphaeroides
  effect on the activity of CcO from R. sphaeroides: did not reveal inhibition
[2]; 1 mM estradiol, 13 mM DM, oxidized CcO
  time for the spectral shift to reach completion after hormone addition: 3 to 5 min
[2]; 1 mM estradiol, cyanide effect from ref 20
  magnitude of spectral shift relative to the effect induced by cyanide: ca. 1/5
[2]
  Spectral Response Induced in Oxidized CcO: red shift of a3^3+
[2]; 13 mM DM
  Magnitude ε of the spectral shift induced in oxidized CcO: 10 mM^−1⋅cm^−1
[2]; reduced CcO
  effect on the absorption spectrum of the reduced CcO: No effect
[3]; 0.5 mM estradiol, 1 mM DM
  inhibition of oxygen consumption (oxidase activity): approximately by half; also recorded: does inhibit
[3]; 2 mM estradiol, 1 mM DM
  inhibition of CcO oxidase activity (fold): ~4 fold
[3]; 2 mM estradiol, 20 mM DM
  inhibition of CcO oxidase activity: only a slight inhibition
[3]
  Inhibition of CcO Oxidase Activity, DM Influence: competes 1:1
  slope tangent of Ki(app) vs [DM], ratio Ki:Kc: 0.25
[3]; [6]
  Ki: 370 µM
R. sphaeroides CcO
  inhibition of R. sphaeroides CcO: inhibition

## CC1=C(/C=C/C(C)=C/C=C/C(C)=C/C(=O)O)C(C)(C)CCC1 [retinoic acid]
CcO from R. sphaeroides
  effect on the activity of CcO from R. sphaeroides: strongly inhibited

## C[C@]12CC[C@H]3[C@@H](CCC4=CC(=O)CC[C@@]43C)[C@@H]1CC[C@@H]2O [Testosterone]
[1]
  Inhibition of CcO Peroxidase Activity: no
[1]; listed as testosterone
  Inhibition of CcO Peroxidase Activity: do not inhibit
CcO from R. sphaeroides
  effect on the activity of CcO from R. sphaeroides: did not reveal inhibition
[2]
  Spectral Response Induced in Oxidized CcO: no
Human endothelial cells
  IC50: 100 µM
[3]
  Ki: 80 µM
  Inhibition of CcO Oxidase Activity, DM Influence: competes 1:1; increases maximal level of inhibition
  slope tangent of Ki(app) vs [DM], ratio Ki:Kc: 0.05
[3]; 1 mM DM
  maximal level of inhibition by excess testosterone: ca. 25%
[3]; 4 mM testosterone, 1 mM DM
  inhibition of CcO oxidase activity: inhibits the activity but weakly
[3]; 4 mM testosterone, 20 mM DM
  inhibition of CcO oxidase activity: strong inhibition; also recorded: does inhibit
[3]; high concentrations of both testosterone and DM (Figure 2A, trace 1: 4 mM testosterone, 20 mM DM)
  inhibition of CcO oxidase activity directly observed (fold): ≤ 3 fold
[3]; read-out: inhibition of bovine oxidase
  inhibition at 100 µM: 13%

## C[C@]12CC[C@H]3[C@@H](CCC4=CC(=O)CC[C@@H]43)[C@@H]1CC[C@@H]2O [nandrolone]
Human endothelial cells
  IC50: 9 µM

## C[C@]12CC[C@H]3[C@@H](CCC4=CC(=O)CC[C@@H]43)[C@@H]1CCC2=O [norandrostenedione]
Human endothelial cells
  IC50: 500 µM

## C[C@]12CCC(=O)C=C1CC[C@@H]1[C@@H]2CC[C@]2(C)C(=O)CC[C@@H]12 [androstenedione]
Human endothelial cells
  IC50: 375 µM

## C[C@]12CC[C@H](O)CC1=CC[C@@H]1[C@@H]2CC[C@]2(C)C(=O)CC[C@@H]12 [Dehydroepiandrosterone (DHEA), Dehydroepiandrosterone]
[1]
  Inhibition of CcO Peroxidase Activity: no
[3]
  Ki: 110 µM
  Inhibition of CcO Oxidase Activity, DM Influence: competes 1:1

## CCCCCCCCCCCCO[C@@H]1O[C@H](CO)[C@@H](O[C@H]2O[C@H](CO)[C@@H](O)[C@H](O)[C@H]2O)[C@H](O)[C@H]1O [DM, dodecyl-maltoside]
[5]
  Kd: 1200 µM
[3]; from plot of Ki(app) for estradiol vs [DM], read-out: dissociation constant for DM in the absence of estradiol, Kc
  Kd: 1470 µM
[3]; from plot of Ki(app) for testosterone vs [DM], read-out: dissociation constant for DM in the absence of testosterone, Kc
  Kd: 1300 µM

## N[C@@H](Cc1cc(I)c(Oc2ccc(O)c(I)c2)c(I)c1)C(=O)O [thyroid hormone T3]
CcO from R. sphaeroides
  effect on the activity of CcO from R. sphaeroides: inhibited the enzyme; also recorded: strongly inhibited
